{"source": "ChEMBL document CHEMBL4715719", "about": "“Synthesis and biological properties of polyamine modified flavonoids as hepatocellular carcinoma inhibitors” (Eur J Med Chem, 2016)", "key": {"SMMC-7721": {"tested_on": "SMMC-7721", "test": "Antiproliferative activity against human […] cells assessed as inhibition of cell proliferation at 30 uM measured after 48 hrs by MTT assay relative to control", "format": "functional"}, "HepG2 [1]": {"tested_on": "HepG2", "test": "Antiproliferative activity against human HepG2 cells assessed as inhibition of cell proliferation at 30 uM measured after 48 hrs by MTT assay relative to control", "format": "functional"}, "HepG2 [2]": {"tested_on": "HepG2", "test": "Antiproliferative activity against human HepG2 cells assessed as inhibition of cell proliferation at 100 uM measured after 48 hrs by MTT assay relative to control", "format": "functional"}, "[3]": {"test": "Cytotoxicity against human QSG7701 cells assessed as inhibition of cell proliferation at 100 uM measured after 48 hrs by MTT assay relative to control", "format": "cell-based"}, "HepG2 [4]": {"tested_on": "HepG2", "test": "Antiinvasive activity against human HepG2 cells assessed as inhibition of cell invasion measured after 48 hrs by wound healing assay", "format": "functional, cell-based", "settings": "dose 50-70 µM"}, "HepG2 [5]": {"tested_on": "HepG2", "test": "Antimigratory activity against human HepG2 cells assessed as inhibition of cell migration at 50 to 70 uM in presence of aspirin measured after 48 hrs by transwell assay", "format": "functional, cell-based", "settings": "dose 50-70 µM"}, "HepG2 [6]": {"tested_on": "HepG2", "test": "Antiinvasive activity against human HepG2 cells assessed as inhibition of cell invasion at 50 to 70 uM measured after 48 hrs in presence of aspirin by wound healing assay", "format": "functional, cell-based", "settings": "dose 50-70 µM"}, "HepG2 [7]": {"tested_on": "HepG2", "test": "Induction of ROS generation in human HepG2 cells after 48 hrs by DCFH-DA staining based assay", "format": "functional, cell-based", "settings": "dose 50-70 µM"}, "HepG2 [8]": {"tested_on": "HepG2", "test": "Induction of apoptosis in human HepG2 cells assessed as activation of caspase 3 at 50 to 70 uM measured after 48 hrs by immunofluorescence assay", "format": "functional, cell-based", "settings": "dose 50-70 µM"}, "[9]": {"test": "Toxicity in Kunming mouse implanted with mouse H22 cells assessed as change in mouse body weight at 10 mg/kg, iv administered for 7 consecutive days starting from day 8 post inoculation cotreated with DFMO at 200 mg/kg and measured after 16 days (reference value: 16.2 %)", "format": "organism-based", "settings": "in vivo, 192 h, time 8 day"}, "H22 [10]": {"tested_on": "H22", "test": "Antimetastatic activity against mouse H22 cells implanted in Kunming mouse assessed as number of metastatic focus at 10 mg/kg, iv administered for 7 consecutive days starting from day 11 post inoculation and measured after 18 days (reference value: 5.73 +/- 14.6)", "format": "functional", "settings": "time 8 day"}, "H22 [11]": {"tested_on": "H22", "test": "Antimetastatic activity against mouse H22 cells implanted in Kunming mouse assessed as inhibition of metastasis at 10 mg/kg, iv administered for 7 consecutive days starting from day 11 post inoculation and measured after 18 days relative to control", "format": "functional", "settings": "192 h, time 8 day"}, "Mus musculus": {"tested_on": "Mus musculus", "test": "Downregulation of Bcl-2 in Kunming mouse implanted with mouse H22 cells at 10 to 30 uM measured after 48 hrs by immunofluorescence analysis", "format": "functional", "settings": "dose 10-30 µM"}, "HepG2 [12]": {"tested_on": "HepG2", "test": "Antiproliferative activity against human HepG2 cells assessed as inhibition of cell proliferation measured after 48 hrs in presence of 800 uM aspirin by MTT assay", "format": "functional, cell-based", "settings": "HepG2, 48 h"}, "[13]": {"test": "Toxicity in Kunming mouse implanted with mouse H22 cells assessed as mouse mortality at 10 mg/kg, iv administered for 7 consecutive days starting from day 8 post inoculation cotreated with aspirin at 10 mg/kg and measured after 16 days", "format": "organism-based", "settings": "in vivo, 192 h, time 8 day"}}, "note": "Calls of active or inactive are those of the source. No cut-off for these calls is given here."}
{"compound": "Cl.Cl.NCCCNCC(=O)NCc1cccc2c(=O)cc(-c3cccc4ccccc34)oc12", "values": [{"measurement": "inhibition at 30 µM", "setting": "SMMC-7721", "value": 5.1, "unit": "%"}, {"measurement": "inhibition at 30 µM", "setting": "HepG2 [1]", "value": 7.9, "unit": "%"}, {"measurement": "inhibition at 100 µM", "setting": "HepG2 [2]", "value": 84.2, "unit": "%"}, {"measurement": "inhibition at 48 h, 100 µM", "setting": "[3]", "value": 41.8, "unit": "%"}, {"measurement": "inhibition", "setting": "HepG2 [4]", "value": "Dose-dependent effect"}, {"measurement": "inhibition", "setting": "HepG2 [5]", "value": "Active"}, {"measurement": "inhibition", "setting": "HepG2 [6]", "value": "Active"}, {"measurement": "Activity", "setting": "HepG2 [7]", "value": "Dose-dependent effect"}, {"measurement": "Activity", "setting": "HepG2 [8]", "value": "Active"}, {"measurement": "Activity", "setting": "[9]", "value": 16.7, "unit": "%"}, {"measurement": "Activity", "setting": "H22 [10]", "value": 40.5}, {"measurement": "inhibition in vivo at 10 mg/kg", "setting": "H22 [11]", "value": 29.3, "unit": "%"}, {"measurement": "Activity", "setting": "Mus musculus", "value": "Active"}, {"measurement": "IC50", "setting": "HepG2 [12]", "value": 59.2, "unit": "µM"}, {"measurement": "Activity", "setting": "[13]", "value": "Non-Toxic"}]}
